According to patent US20240216369A1, “THE USE OF A SPLICING MODULATOR FOR A TREATMENT SLOWING PROGRESSION OF HUNTINGTON'S DISEASE” (Novartis AG, priority 2019, published 2024):
“Also recorded” adds a separate entry of the source.

How the values were obtained:
HTT transcript = assay: Single oral dose in BacHD mice: HTT transcripts in brain and blood (qPCR); format: in vivo
Procedure: Twenty-eight BacHD mice (FVB/N-Tg(HTT*97Q)|Xwy/J transgenic mice—Jackson Laboratories) were used for the experiment. Animal protocols were approved by the Children's Hospital of Philadelphia Institutional Animal Care and use Committee. Mice were housed in a temperature-controlled environment on a 12-h light/dark cycle. Food and water were provided ad libitum.
A single dose of branaplam or vehicle solution was administered by oral gavage. Mice were divided in seven groups (n=4 mice/group) and treated with branaplam (10 mg/kg—2 groups) and 50 mg/kg—3 groups), or vehicle (2 groups) as control. Mice were firmly restrained by grasping the loose skin to immobilize the head, maintained in a vertical position and a 22- to 26-gauge gavage needle was placed in the side of the mouth. The needle was guided following the roof of the mouth into the esophagus and allowed to gently enter in the stomach. The amount of branaplam or vehicle administrated to each mouse was based on the weight recorded before treatment.
At 8 h, 24 h (vehicle and branaplam 10 mg/kg & 50 mg/kg), and 48 h (branaplam 50 mg/kg) after oral gavage, blood and tissue samples were obtained for PK and PD analysis. Mice were anesthetized with isoflurane and blood was obtained via submandibular vein bleeds and collected for RNA extraction (PD analysis) using RNAprotect Animal Blood Tubes, and plasma (PK analysis) using K2EDTA coated tubes. Cells were removed from plasma by centrifugation for 10 min at 2000×g at 4° C., and plasma samples were stored at −80° C. Following blood collection, mice were anesthetized with a lethal dose of ketamine/xylazine ([…] of a 10 mg:1 mg), and perfused with 18 ml of 0.9% cold saline mixed with 2 ml of RNAlater (Ambion) solution for tissue collection. Liver, skeletal muscle, cerebrum, and cerebellum samples were flash frozen in liquid nitrogen and stored at −80° C.
In experiments, as herein described, the branaplam dose is provided as a solution of branaplam monohydrochloride salt (10 mg/mL suspension) in methyl cellulose, medium viscosity 400 cP for a 1% solution), Tween 80 (1% v/v), purified water suspension formulation.
(§1) Total RNA from cerebrum and cerebellum was extracted using RNeasy Plus kit (Qiagen) after homogenized in Precellys at 6000 rpm for 40 sec. RNA from blood was extracted using PAXgene blood RNA kit (Qiagen) according to manufacturer protocol. The RNA was quantified by Nanodrop 2000 (Thermo Scientific). cDNAs were synthesized from 140-400 ng RNA using Maxima First strand cDNA synthesis kit using a mix of oligo dT and random hexamers (Thermo Scientific) in 20 uL reaction at 25° C. for 10 min, 50° C. for 15 min then 85° C. for 5 min. Quantitative PCR was performed using Taqman Fast Advanced master mix (Thermo Scientific) in 20 uL with 4 uL of cDNA reaction and primers specific for each genes. The PCR steps were as follows: 95° C. for 20 sec then 40 cycles of 95° C. for 1 sec, 55° C. for 20 sec. […] Relative quantification of gene expression was performed using 2^−ΔΔCT method. Fold changes in the mRNA expression level was calculated following normalization to mouse glucuronidase beta (Gusb) as an endogenous reference.

[1] = tested on: endogenous mouse HTT transcript or protein; assay: BacHD mice: effect on endogenous mouse HTT; format: in vivo
Procedure: as §1
Snap-frozen mouse tissue samples were homogenized in RIPA buffer with protease and phosphatase inhibitor (Thermo Scientific) by Precellys at 6000 rpm for 40 sec. […] Total protein concentration was quantified using the BCA protein Assay (Thermo Scientific). […] Protein bands were quantified by Image J.

tHTT = assay: Mutant and total HTT multiplex HTRF assay in Q48 HTT human embryonic stem cell line: tHTT; format: cell-based; conditions: Q48 HTT hESC, 48 hours
Procedure, shortened: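 Q48 HTT hESCs from HD donors were treated with compound for 48 h at 37 °C after 24 h adherence, then lysed. Lysates were read by multiplex HTRF with N-terminal donor, polyQ (MW1) and post-polyQ (MAB2166) antibodies for 4-6 h at RT. Donor/acceptor ratios give relative mHTT and tHTT; pIC50 reported.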

[2] = single oral dose 10 or 50 mg/kg, listed as branaplam

CC1(C)CC(Oc2ccc(-c3ccc(-c4cn[nH]c4)cc3O)nn2)CC(C)(C)N1 [Compound 18, 5-(1H-pyrazol-4-yl)-2-(6-((2,2,6,6-tetramethylpiperidin-4-yl)oxy)pyridazin-3-yl)phenol]
novel-exon-containing HTT transcript levels in brain (HTT transcript; single oral dose 50 mg/kg, 48 h after dosing): trend towards return to vehicle levels
novel-exon-containing HTT transcript levels in brain (HTT transcript; single oral dose 10 or 50 mg/kg, 8 and 24 h after dosing, listed as branaplam): elevates; also recorded: dose dependent increase
total HTT transcript levels in brain (HTT transcript; single oral dose 10 or 50 mg/kg, 8 h and 24 h, listed as branaplam): lowers; also recorded: lowering trend at 8 h; also recorded: greater degree of lowering at the 50 mg/kg level, 24 hours post-dosing
novel-exon-containing HTT transcript levels in blood (HTT transcript; [2]): elevates; also recorded: robust modulation
total HTT transcript levels in blood (HTT transcript; [2]): lowers; also recorded: lowering
effect on endogenous mouse HTT transcript or protein [1]: no lowering effect
tHTT pIC50 (tHTT): 7.371
